We go through four compounds from patent US10919941B2, “Functional lipid constructs” (KODE BIOTECH LIMITED, priority 2007, dated 2021).

For data set [1] the following is noted: 25° C.; cited from earlier work.
For data set [2], the system named is Miltenberger antibody positive samples and false positive antibody negative samples. Description: Reactivity of RBCs modified with capped peptide-lipid constructs in alternative configurations. Type of data set: cell-based. Details: key: 0 or ‘−’ no agglutination; 0 or ‘−’ no agglutination; 1+ or 3=very weak agglutination; 1+ or 3=very weak agglutination; 2+ or 5=weak agglutination; 2+ or 5=weak agglutination; 3+ or 8=moderate strong agglutination; 3+ or 8=moderate strong agglutination; 4+ or 10/12=strong agglutination; 4+ or 10/12=strong agglutination; 4+ or 10/12=strong agglutination. Conditions: capped construct 50 μg/mL, 2 hours at 37° C. On the procedure:
Peptide-lipid constructs comprising CMG(2) and the following peptides were prepared:
The termini of the peptides were formylated and amidated to provide “capped” peptides. The reactivity of random Miltenberger antibody positive samples and three false positive antibody negative samples were tested against RBCs modified to incorporate these “capped” peptide-lipid constructs (50 μg/mL, 2 hours at 37° C.).
The reactivity was assessed and recorded in Table 24. […] However, linkage of the peptide via a Cys residue located at the amino terminus (as opposed to the carboxy terminus) appeared to reduce the likelihood of reactivity with the false-positive antibody negative samples and improve reactivity with the known antibody positive samples.

Data set [3] deals with Miltenberger antigen MiIII on natural human red cells (human) (UniProt P02724). As to the kind of experiment: BioVue AHG; cell 11297161.
The target is the same in data set [4]. As to the kind of experiment: AHG; cell Abtectcell III 8245009.
Data set [5] deals with Miltenberger antigen Mi?X on natural human red cells (human). Description: BioVue AHG; cell C.BR.
Data set [6] concerns the target Miltenberger antigen MiIII on natural human red cells (human) (UniProt P02724). Description: AHG; cell R1Rz 11291347.
The target is the same in data set [7]. Description: saline phase; cell R1Rz 11291347.
The target of data set [8] is Miltenberger antigen Vw on natural human red cells (human) (UniProt P02724). As to the kind of experiment: BioVue AHG; cell 9422184.
The target in data set [9] is Miltenberger antigen MiIII on natural human red cells (human) (UniProt P02724). As to the kind of experiment: AHG; cell R2R2 11297161.
The target is the same in data set [10]. As to the kind of experiment: saline phase; cell R2R2 11297161.

*: point of attachment. For = O=C*

Take `O=C(O)CCCC[C@@H]1SC[C@@H]2NC(=O)N[C@@H]21` [Biotin, [3aS-(3aα, 4β, 6aα)]-hexahydro-2-oxo-1H-thieno[3,4-d]imidazole-4-pentanoic acid]: in [1], the “solubility in 95% alcohol” value is listed as “approximately 80 mg/100 mL” and the solubility in water entry is recorded as “approximately 22 mg/100 mL”.
As to “M44: capped peptide-lipid construct comprising CMG(2) and ThrTyrProAlaHisThrAlaAsnGluCys (For-TYPAHTANEC-NH2; also: capped peptide-lipid construct comprising CMG(2))”, in data set [2], the “agglutination score, antibody positive serum 55” value came to 8; the “agglutination score, antibody positive serum 61” value was 8; the “agglutination score, antibody positive serum 65” value is given as 10; the “agglutination score, antibody positive serum 67” value is given as 8. Moreover, in [2], the “agglutination score, antibody positive serum 68” value stood at 0; the “agglutination score, antibody positive serum 71” value came out at 10; the “agglutination score, antibody positive serum 942-433813-3” value was 0; the “agglutination score, false-positive antibody negative serum PAC302” value is on record as 5. Moreover, in [2], the “agglutination score, false-positive antibody negative serum PAC332” value is on record as 12 and the “agglutination score, false-positive antibody negative serum PAC340” value was found to be 5.
With “M45: capped peptide-lipid construct comprising CMG(2) and CysThrTyrProAlaHisThrAlaAsnGlu (For-CTYPAHTANE-NH2; also: capped peptide-lipid construct comprising CMG(2))”, in data set [2], the “agglutination score, antibody positive serum 55” value came to 8; the “agglutination score, antibody positive serum 61” value is 5; the “agglutination score, antibody positive serum 65” value was found to be 8; the “agglutination score, antibody positive serum 67” value is listed as 10. For the same compound, in data set [2], the “agglutination score, antibody positive serum 68” value turned out to be 0; the “agglutination score, antibody positive serum 71” value worked out at 10; the “agglutination score, antibody positive serum 942-433813-3” value worked out at 5; the “agglutination score, false-positive antibody negative serum PAC302” value is on record as 0. For the same compound, in data set [2], the “agglutination score, false-positive antibody negative serum PAC332” value is 0 and the “agglutination score, false-positive antibody negative serum PAC340” value is 0.
For the compound TAP1, the agglutination score in [3] was determined as 10; in data set [4] it was 10; in data set [5] it was 12; in data set [6] it was 10; in data set [7] it was 8; in [8], 5. The figures for the agglutination score in [9] and in data set [10] were 10 and 8, respectively.
